Test results as given in patent US6342213B1, “Methods for treating non-suturable wounds by use of cyanoacrylate adhesives” (MedLogic Global Corporation, priority 1992, dated 2002).

What was measured:
[1] = system: human skin tissue; test: Bonding of human skin tissue, histotoxicity/cytotoxicity
[2] = used as suture supplements or internally; site of application; cited from earlier work

SMILES: C=C(C#N)C(=O)OCCCC [n-butyl cyanoacrylate, n-butyl-2-cyanoacrylate]
- Histotoxicity or cytotoxicity on bonding human skin tissue [1]: without causing histoxicity or cytotoxicity
- Time after application at which polymeric residue was still observed by histological examination [2]: ≤ 12 months
